# Values joined by “and” are separate entries in the source; they are usually repeats but may differ in a detail not shown here. Equal values may be shown once. Read-outs that look alike come from different tables or passages of the source.
# Experiments:
# [1] = 37°C
# Procedure: The RCP of [^188Re]Re-IBA was determined by PC. Acetone and 0.9% NaCl were used as the eluents. A TLC scanner was used to measure the distribution of radioactivity on the PC strips. The RCP of [^188Re]Re-IBA was calculated from the peak area measurements as follows: […]
# Freshly prepared [^188Re]Re-IBA was incubated in 0.9% NaCl and fresh human serum at 37°C. The RCP of the tubes was determined by PC at 1 h, 3 h, 6 h, 12 h, and 24 h. The experiment was repeated thrice. The results are expressed as mean ± standard deviation ( χ¯ ± s).
# [2] = test system: fresh human plasma; conditions: 37°C, 2 h
# From the text: The results are expressed as mean ± standard deviation ( χ¯ ± s).
# [3] = Biodistribution in normal mice; type: in vivo, Kunming mice
# Procedure: Twenty Kunming mice (originated from Swiss albino mice and introduced into Kunming, China.) were randomly divided into five groups (equal number of males and females). Each group was injected with 3.7 MBq [^188Re]Re-IBA. […] The blood and important tissue and organ samples were collected to measure the radioactivity count by γ counter. Following the time attenuation correction, the percentage injection dose rate per gram of tissue (%ID/g) was calculated at each time point. The result is expressed as mean ± standard deviation ( χ¯ ± s). The in vivo distribution of [^188Re]ReO4^− was studied using the aforementioned method.
# [4] = Bone imaging of New Zealand rabbits (SPECT); conditions: New Zealand rabbit, 100 MBq
# Procedure: The New Zealand rabbit was anesthetized by intraperitoneal injection of 2% pentobarbital sodium (40 mg/kg). Then, 100 MBq [^188Re]Re-IBA was injected. Bone imaging was performed at different time points (acquisition equipment: American GE Infinia T4 double probe single-photon emission computed tomography, high energy collimator; scanning parameters: energy peak: 155 keV, posture: supine position, matrix: 128 × 128, and window width: ±10%). Following image acquisition, the images were processed by using the software of the postprocessing workstation.
compound,measurement,setting,value
CCCCCN(C)CCC1(O)P(=O)(O)[O][188Re]2([OH])([OH])([O]P1(=O)O)[O]P(=O)(O)C(O)(CCN(C)CCCCC)P(=O)(O)[O]2 (stereo not drawn) [[^188Re]Re-IBA],"RCP, in vitro stability","[1]; 0.9% NaCl, 1 h",98.14 ± 0.2%
same,"RCP, in vitro stability","[1]; 0.9% NaCl, 3 h",97.82 ± 0.6%
same,"RCP, in vitro stability","[1]; 0.9% NaCl, 6 h",96.99 ± 1.3%
same,"RCP, in vitro stability","[1]; 0.9% NaCl, 12 h",95.33 ± 1.1%
same,"RCP, in vitro stability","[1]; 0.9% NaCl, 24 h",91.44% and 91.44 ± 0.8%
same,"RCP, in vitro stability","[1]; human serum, 1 h",99.01 ± 0.5%
same,"RCP, in vitro stability","[1]; human serum, 3 h",98.67 ± 0.9%
same,"RCP, in vitro stability","[1]; human serum, 6 h",98.15 ± 0.8%
same,"RCP, in vitro stability","[1]; human serum, 12 h",96.90 ± 1.4%
same,"RCP, in vitro stability","[1]; human serum, 24 h",93.06% and 93.06 ± 1.6%
same,PPB (plasma protein binding rate),[2],79.8 ± 0.71%
same,%ID/g Blood,[3]; 1 h,1.869 ± 0.665 %ID/g
same,%ID/g Brain,[3]; 1 h,0.072 ± 0.023 %ID/g
same,%ID/g Femur,[3]; 1 h,5.989 ± 1.680 %ID/g
same,%ID/g Gonad,[3]; 1 h,0.878 ± 0.426 %ID/g
same,%ID/g Heart,[3]; 1 h,0.488 ± 0.179 %ID/g
same,%ID/g Kidney,[3]; 1 h,5.894 ± 1.648 %ID/g
same,%ID/g Liver,[3]; 1 h,1.100 ± 0.165 %ID/g
same,%ID/g Lung,[3]; 1 h,1.297 ± 0.661 %ID/g
same,%ID/g Muscle,[3]; 1 h,0.550 ± 0.251 %ID/g
same,%ID/g Small intestine,[3]; 1 h,0.898 ± 0.494 %ID/g
same,%ID/g Spleen,[3]; 1 h,0.952 ± 0.336 %ID/g
same,%ID/g Stomach,[3]; 1 h,2.928 ± 0.851 %ID/g
same,%ID/g Thyroid gland,[3]; 1 h,0.594 ± 0.201 %ID/g
same,Femur/heart radioactivity ratio,[3]; 1 h,12.278
same,Femur/liver radioactivity ratio,[3]; 1 h,5.443
same,Femur/muscle radioactivity ratio,[3]; 1 h,10.880
same,%ID/g Blood,[3]; 3 h,0.785 ± 0.220 %ID/g
same,%ID/g Brain,[3]; 3 h,0.056 ± 0.010 %ID/g
same,%ID/g Femur,[3]; 3 h,7.105 ± 1.901 %ID/g
same,%ID/g Gonad,[3]; 3 h,0.611 ± 0.095 %ID/g
same,%ID/g Heart,[3]; 3 h,0.293 ± 0.118 %ID/g
same,%ID/g Kidney,[3]; 3 h,3.140 ± 0.799 %ID/g
same,%ID/g Liver,[3]; 3 h,0.794 ± 0.133 %ID/g
same,%ID/g Lung,[3]; 3 h,0.784 ± 0.196 %ID/g
same,%ID/g Muscle,[3]; 3 h,0.344 ± 0.143 %ID/g
same,%ID/g Small intestine,[3]; 3 h,0.597 ± 0.214 %ID/g
same,%ID/g Spleen,[3]; 3 h,0.475 ± 0.135 %ID/g
same,%ID/g Stomach,[3]; 3 h,2.801 ± 0.560 %ID/g
same,%ID/g Thyroid gland,[3]; 3 h,0.449 ± 0.171 %ID/g
same,Femur/heart radioactivity ratio,[3]; 3 h,24.214
same,Femur/liver radioactivity ratio,[3]; 3 h,8.949
same,Femur/muscle radioactivity ratio,[3]; 3 h,20.664
same,%ID/g Blood,[3]; 6 h,0.496 ± 0.207 %ID/g
same,%ID/g Brain,[3]; 6 h,0.045 ± 0.011 %ID/g
same,%ID/g Femur,[3]; 6 h,7.724 ± 2.292 %ID/g
same,%ID/g Gonad,[3]; 6 h,0.303 ± 0.141 %ID/g
same,%ID/g Heart,[3]; 6 h,0.199 ± 0.049 %ID/g
same,%ID/g Kidney,[3]; 6 h,2.763 ± 0.731 %ID/g
same,%ID/g Liver,[3]; 6 h,0.526 ± 0.087 %ID/g
same,%ID/g Lung,[3]; 6 h,0.506 ± 0.104 %ID/g
same,%ID/g Muscle,[3]; 6 h,0.220 ± 0.124 %ID/g
same,%ID/g Small intestine,[3]; 6 h,0.608 ± 0.192 %ID/g
same,%ID/g Spleen,[3]; 6 h,0.296 ± 0.108 %ID/g
same,%ID/g Stomach,[3]; 6 h,1.741 ± 0.368 %ID/g
same,%ID/g Thyroid gland,[3]; 6 h,0.399 ± 0.082 %ID/g
same,Femur/heart radioactivity ratio,[3]; 6 h,38.835
same,Femur/liver radioactivity ratio,[3]; 6 h,14.694
same,Femur/muscle radioactivity ratio,[3]; 6 h,35.182
same,%ID/g Blood,[3]; 24 h,0.058 ± 0.013 %ID/g
same,%ID/g Brain,[3]; 24 h,0.024 ± 0.013 %ID/g
same,%ID/g Femur,[3]; 24 h,6.177 ± 2.163 %ID/g
same,%ID/g Gonad,[3]; 24 h,0.059 ± 0.032 %ID/g
same,%ID/g Heart,[3]; 24 h,0.045 ± 0.012 %ID/g
same,%ID/g Kidney,[3]; 24 h,0.913 ± 0.173 %ID/g
same,%ID/g Liver,[3]; 24 h,0.122 ± 0.042 %ID/g
same,%ID/g Lung,[3]; 24 h,0.138 ± 0.037 %ID/g
same,%ID/g Muscle,[3]; 24 h,0.051 ± 0.020 %ID/g
same,%ID/g Small intestine,[3]; 24 h,0.078 ± 0.013 %ID/g
same,%ID/g Spleen,[3]; 24 h,0.189 ± 0.052 %ID/g
same,%ID/g Stomach,[3]; 24 h,0.098 ± 0.036 %ID/g
same,%ID/g Thyroid gland,[3]; 24 h,0.115 ± 0.036 %ID/g
same,Femur/heart radioactivity ratio,[3]; 24 h,137.083
same,Femur/liver radioactivity ratio,[3]; 24 h,50.645
same,Femur/muscle radioactivity ratio,[3]; 24 h,121.910
same,%ID/g Blood,[3]; 48 h,0.031 ± 0.009 %ID/g
same,%ID/g Brain,[3]; 48 h,0.009 ± 0.002 %ID/g
same,%ID/g Femur,[3]; 48 h,5.239 ± 2.029 %ID/g
same,%ID/g Gonad,[3]; 48 h,0.029 ± 0.009 %ID/g
same,%ID/g Heart,[3]; 48 h,0.019 ± 0.010 %ID/g
same,%ID/g Kidney,[3]; 48 h,0.399 ± 0.153 %ID/g
same,%ID/g Liver,[3]; 48 h,0.038 ± 0.020 %ID/g
same,%ID/g Lung,[3]; 48 h,0.040 ± 0.020 %ID/g
same,%ID/g Muscle,[3]; 48 h,0.016 ± 0.005 %ID/g
same,%ID/g Small intestine,[3]; 48 h,0.033 ± 0.010 %ID/g
same,%ID/g Spleen,[3]; 48 h,0.046 ± 0.009 %ID/g
same,%ID/g Stomach,[3]; 48 h,0.047 ± 0.019 %ID/g
same,%ID/g Thyroid gland,[3]; 48 h,0.070 ± 0.019 %ID/g
same,Femur/heart radioactivity ratio,[3]; 48 h,270.814
same,Femur/liver radioactivity ratio,[3]; 48 h,136.914
same,Femur/muscle radioactivity ratio,[3]; 48 h,325.483
same,Elimination route of most of the activity,[4],through the kidneys
same,"Bone imaging, tracer distribution",[4]; 20 min after the injection,obvious accumulation in bones and mild tracer uptake in soft tissue

# From article PMC8896928, “Preparation, Characterization, and Preliminary Imaging Study of [^188Re]Re-Ibandronate as a Novel Theranostic Radiopharmaceutical for Bone Metastasis” (Contrast Media & Molecular Imaging, 2022)
